Assay results published in patent US20190022135A1, “TREATMENT FOR CHITIN-CONTAINING MICROORGANISMS” (Benchmark Animal Health Limited, priority 2016, published 2019).

Tests used:
sea lice = test: In vivo studies: number of attached sea lice after treatment; conditions: 2.75 ppm/L PA only, 15 min exposure, 4 days post treatment
Procedure: Water salinity: […]; Temperature: 8.5° C.; Oxygen: minimum 8 mg/L in water during treatment (8-10 mg/L measured).

Saprolegnia sp. = test: Effect on Saprolegnia zoospores, spores and hyphae (stated finding)
Saprolegnia spores = test: Saprolegnia spore viability in biofilms (CellTiter 96 MTS assay); type: cell-based; conditions: 4 h
Procedure: The effect of treating Saprolegnia-spores with combinations of boric acid and propionic acid was investigated in biofilm preparations since this is one of the most challenging conditions under which effects can be tested.
Spores were produced to form biofilms. Saprolegnia hyphae were excised from GY agar plates and then incubated in GY broth (15±1° C., 2 days), giving additional hyphal growth. Young hyphae were washed in SAW, transferred to two glass bottles containing one liter of SAW and incubated at 21±1° C. (24 h) to allow zoospore production. Suspensions of zoospores were filtered (tea filter, 0.5 mm pores) resulting in zoospore encystment. Cysts were counted by hemocytometer, the cyst suspensions were adjusted to 1.0±104 spores/L. The suspension was then used in the biofilm formation studies (chambered cover glass system) within 3 h of counting.
Treatment with BA and/or PA was for 4 hours in stagnate, aerated water after which the water circulation was resumed. Biofilm preparations were tested for viability as described (Ali et al. 2014). In brief, CellTiter 96 aqueous one solution cell proliferation assay (Promega) was used. The test is based on tetrazolium compound [3-(4,5-dimethylthiazol-2-yl)-5-(3-carboxy-methoxyphenyl)-2-(4-sulfophenyl)-2H-tetrazolium, inner salt; MTS] being reduced by viable cells resulting in the formation of formazan products from MTS. The reaction is based on mitochondrial enzymes being active (dehydrogenase) (Lopes et al. 2013), and is an indicator of metabolic rate of the mitochondria.
Tests were run in 72-well plates with biofilm formed in the wells. BA and/or PA was then added to each tested well (except controls) at increasing concentrations, 1-4 g/L for BA and 31.4 to 125.6 mM/L for PA. Bronopol was used as a positive treatment but at 300 mg/L concentration, and SAW as negative control. Wells with the MTS reagent without spores were used as a background control. The plates were incubated at 15-20° C. Reading was done following 4 h incubation of BA and PA. Formazan product was measured at 490 nm. MTS reduction is proportional to the number and activity of live spores. Spore viability was calculated by: % viability=100×(OD490 value for the sample−mean background OD490)/(mean OD490 for non-treated water control−mean background OD490).

[1] = test system: eggs and/or fry of Atlantic salmon; conditions: 50 mg/L treatment for 1 h; cited from earlier work

CCC(=O)O [PA, propionic acid]
reduction of the number of attached sea lice (sea lice): Reduced the number of attached sea lice by 30% | effect on spores and hyphae (Saprolegnia sp.): direct toxic effect | viability (OD value) (Saprolegnia spores; PA 4 ml added (equivalent to 125.6 mM/L), biofilm): lower OD value | viability, statistical evaluation against 4 g/L of BA (Saprolegnia spores; PA (4 ml)): significantly lower viability

O=[N+]([O-])C(Br)(CO)CO [Pyzece, Bronopol]
egg toxicity [1]: egg mortality | viability level (OD value) (Saprolegnia spores; 300 mg/L, biofilm, compared with BA and PA combination (approx. 0.3)): same viability level

OB(O)O [BA, boric acid]
effect on zoospore production and release and on zoosporangia (Saprolegnia sp.): interferes with the production and subsequent release of zoospores | viability (OD value) (Saprolegnia spores; BA from 1 g/L up to 4 g/L, biofilm): declining viability
